In patent US20230100838A1 (Revolution Medicines, Inc., priority 2019, published 2023):

What was measured:
Assay type in all cases: binding
[1] = target: T1, GDP-loaded K-Ras (1-169) G12D, C51S, C80L, C118S (Homo sapiens, UniProt P01116, C118S/C51S/C80L/G12D); assay: K-Ras G12D(GDP) cross-linking assay (conjugate formation, TOF mass spectrometry); settings: percent covalently modified K-Ras by MS, room temperature, typical compound conc. 2, 10, 25 μM, endpoints 1 and 24 h
T1 construct: GDP-loaded K-Ras (1-169) G12D, C51S, C80L, C118S
Experimental: (§1) Protocol: K-Ras G12D(GDP) Cross-Linking Assay
(§2) Note: while the following protocol outlines the procedure for K-Ras G12D(GDP), a person of skill in the art may substitute other Ras proteins, and may also substitute a non-hydrolyzable GTP analog for GDP to study GTP bound Ras protein.
(§3) GDP-loaded K-Ras (1-169) G12D, C51S, C80L, C118S and GDP-loaded K-Ras (1-169) C51S, C80L, C118S were adjusted to 50 μM in K-Ras assay buffer (12.5 mM HEPES, 75 mM NaCl and 1 mM MgCl2 at pH 7.4). A 5 μL aliquot of each protein solution was added to each well of a 96-well microplate containing 40 μL of assay buffer. Initial compound stocks were prepared in DMSO at 100 times their final assay concentration. Compounds were then diluted 10-fold into K-Ras assay buffer to 10 times their final concentration. A 5 μL aliquot of each diluted compound solution was added to each protein solution in the 96-well microplate to initiate the reaction, which then proceeded at room temperature. Typical final compound concentrations were 2, 10, and 25 μM. At each time point, the reactions were analyzed immediately or quenched with 5 μL of a 5% formic acid solution and kept at 4° C. until analysis. Typical assay endpoints were 1 and 24 h.
(§4) Data collection took place on an Agilent 6230 TOF Mass Spectrometer. Complete reactions were injected onto a C4 reverse-phase column to separate protein from buffer components prior to entering the mass spectrometer. The proteins were eluted from the column by increasing acetonitrile fraction in the mobile phase and fed directly into the mass analyzer. Initial analysis of raw data took place in Agilent MassHunter BioConfirm software and consisted of deconvolution of multiple protein charge states with the maximum entropy algorithm, with a mass step of 1 Da. The heights of all deconvoluted protein masses were exported for further data analysis. The percent modification of each protein was then determined by calculating the peak height of the covalently modified K-Ras species as a percentage of the sum total of K-Ras protein peak height.

[2] = target: K-Ras G12S (Homo sapiens, UniProt P01116, G12S); assay: K-Ras G12S cross-linking assay (comparable procedure, conjugate formation, TOF mass spectrometry)
Experimental: as §1, §2, §3, §4

[3] = target: T2, GDP-loaded K-Ras (1-169) C51S, C80L, C118S (Homo sapiens, UniProt P01116, C118S/C51S/C80L); assay: K-Ras WT (GDP) cross-linking assay (conjugate formation, TOF mass spectrometry); set-up: key: 0: No observed x-linking; +: 0 < x ≤ 20; ++: 20 < x ≤ 40; +++: 40 < x ≤ 100; settings: percent covalently modified K-Ras by MS, room temperature, typical compound conc. 2, 10, 25 μM, endpoints 1 and 24 h
T2 construct: GDP-loaded K-Ras (1-169) C51S, C80L, C118S
Experimental: as §1, §2, §3, §4

[4] = Table 4, percent covalently modified K-Ras by MS
[5] = Table 5, percent covalently modified K-Ras by MS

Row | G12D x-linking (%) ([1]; Table 4) | G12S x-linking (%) [2, 4] | WT x-linking (%) ([3]; Table 4) | G12D x-linking (%) ([1]; Table 5) | G12S x-linking (%) [2, 5] | WT x-linking (%) ([3]; Table 5) | SMILES
1 | +++ (40 < x ≤ 100) | ++ (10 < x ≤ 100) | ++ (20 < x ≤ 100) | – | – | – | CCCN=C=NC1CCN(c2nc(OC[C@@H]3CCCN3C)nc3c2CCN(c2cccc4cccc(C)c24)C3)CC1 [Example 22, N-(1-(7-(8-methylnaphthalen-1-yl)-2-(((S)-1-methylpyrrolidin-2-yl)methoxy)-5,6,7,8-tetrahydropyrido[3,4-d]pyrimidin-4-yl)piperidin-4-yl)-N-propylmethanediimine]
2 | – | – | – | + (0 < x ≤ 20) | + (0 < x ≤ 10) | + (0 < x ≤ 20) | Cc1cccc2cccc(N3CCc4c(nc(OC[C@@H]5CCCN5C)nc4N4CCC(N=C=NCc5cccs5)CC4)C3)c12 [Example 94, N-(1-(7-(8-methylnaphthalen-1-yl)-2-(((S)-1-methylpyrrolidin-2-yl)methoxy)-5,6,7,8-tetrahydropyrido[3,4-d]pyrimidin-4-yl)piperidin-4-yl)-N-(thiophen-2-ylmethyl)methanediimine]
3 | – | – | – | ++ (20 < x ≤ 40) | + (0 < x ≤ 10) | + (0 < x ≤ 20) | COCCN=C=N[C@H]1CC[C@H](N(C)c2nc(OC[C@@H]3CCCN3C)nc3c2CCN(c2cccc4cccc(C)c24)C3)CC1 [Example 78, N-((1r,4S)-4-((((2-methoxyethyl)imino)methylene)amino)cyclohexyl)-N-methyl-7-(8-methylnaphthalen-1-yl)-2-(((S)-1-methylpyrrolidin-2-yl)methoxy)-5,6,7,8-tetrahydropyrido[3,4-d]pyrimidin-4-amine]
4 | + (0 < x ≤ 20) | + (0 < x ≤ 10) | + (0 < x ≤ 20) | – | – | – | Cc1cccc2cccc(N3CCc4c(nc(OC[C@@H]5CCCN5C)nc4N4CCC(B(O)O)CC4)C3)c12 [Example 52, (S)-(1-(7-(8-methylnaphthalen-1-yl)-2-((1-methylpyrrolidin-2-yl)methoxy)-5,6,7,8-tetrahydropyrido[3,4-d]pyrimidin-4-yl)piperidin-4-yl)boronic Acid]
5 | – | – | – | + (0 < x ≤ 20) | – | + (0 < x ≤ 20) | Cc1cccc2cccc(N3CCc4c(nc(OC[C@@H]5CCCN5C)nc4N4CCN(C(=O)[C@H]5CN5S(C)(=O)=O)[C@@H](CC#N)C4)C3)c12 (stereo partly shown) [Example 131]
6 | – | – | – | +++ (40 < x ≤ 100) | – | + (0 < x ≤ 20) | COC1CC1N=C=NC1CCN(c2nc(OC[C@@H]3CCCN3C)nc3c2CCN(c2cccc4cccc(C)c24)C3)CC1 (stereo partly shown) [Example 151]
7 | – | – | – | + (0 < x ≤ 20) | – | + (0 < x ≤ 20) | CO[C@@H]1CCCC[C@H]1N=C=NC1CCN(c2nc(OC[C@@H]3CCCN3C)nc3c2CCN(c2cccc4cccc(C)c24)C3)CC1 [Example 147]
8 | – | – | – | +++ (40 < x ≤ 100) | – | + (0 < x ≤ 20) | COCC1(N=C=N[C@H]2C[C@H](Nc3nc(OC[C@@H]4CCCN4C)nc4c3CCN(c3cccc5cccc(C)c35)C4)C2)CC1 [Example 152]

Continued, compound first:

Row | SMILES | G12D x-linking (%) ([1]; Table 4) | G12S x-linking (%) [2, 4] | WT x-linking (%) ([3]; Table 4) | G12D x-linking (%) ([1]; Table 5) | G12S x-linking (%) [2, 5] | WT x-linking (%) ([3]; Table 5)
9 | COCCN=C=NCCCN(C)c1nc(=O)n(-c2c(C)ccnc2C(C)C)c2nc(-c3ccccc3F)c(F)cc12 [Example 56] | ++ (20 < x ≤ 40) | ++ (10 < x ≤ 100) | ++ (20 < x ≤ 100) | – | – | –
10 | CCCN=C=NC1CCN(c2nc(=O)n(-c3c(C)ccnc3C(C)C)c3nc(-c4ccccc4F)c(F)cc23)CC1 [Example 53, 6-fluoro-7-(2-fluorophenyl)-1-(2-isopropyl-4-methylpyridin-3-yl)-4-(4-(((propylimino)methylene)amino)piperidin-1-yl)pyrido[2,3-d]pyrimidin-2(1H)-one] | + (0 < x ≤ 20) | + (0 < x ≤ 10) | + (0 < x ≤ 20) | – | – | –
11 | Fc1ccccc1-c1c(Cl)cc2c(N3CCN(C4=NCCO4)CC3)ncnc2c1F [Example 14, 2-(4-(6-chloro-8-fluoro-7-(2-fluorophenyl)quinazolin-4-yl)piperazin-1-yl)-4,5-dihydrooxazole] | + (0 < x ≤ 20) | + (0 < x ≤ 10) | + (0 < x ≤ 20) | – | – | –
12 | Cc1cccc2cccc(N3CCc4c(nc(OC[C@@H]5CCCN5C)nc4N4CCC(N(C)C(=O)C5CN5)CC4)C3)c12 (stereo partly drawn) [Example 42, N-methyl-(1-(7-(8-methylnaphthalen-1-yl)-2-(((S)-1-methylpyrrolidin-2-yl)methoxy)-5,6,7,8-tetrahydropyrido[3,4-d]pyrimidin-4-yl)piperidin-4-yl)aziridine-2-carboxamide] | + (0 < x ≤ 20) | + (0 < x ≤ 10) | + (0 < x ≤ 20) | – | – | –
13 | Cc1cccc2cccc(N3CCc4c(nc(OC[C@@H]5CCCN5C)nc4N(C)CCCN=C=NCc4ccc(Cl)cc4)C3)c12 [Example 32, N-(3-((((4-chlorobenzyl)imino)methylene)amino)propyl)-N-methyl-7-(8-methylnaphthalen-1-yl)-2-(((S)-1-methylpyrrolidin-2-yl)methoxy)-5,6,7,8-tetrahydropyrido[3,4-d]pyrimidin-4-amine] | + (0 < x ≤ 20) | + (0 < x ≤ 10) | + (0 < x ≤ 20) | – | – | –
14 | Cc1cccc2cccc(N3CCc4c(nc(OC[C@@H]5CCCN5C)nc4N4CCN(C(=O)C5CN5)CC4)C3)c12 (stereo partly drawn) [Example 46, aziridin-2-yl(4-(7-(8-methylnaphthalen-1-yl)-2-(((S)-1-methylpyrrolidin-2-yl)methoxy)-5,6,7,8-tetrahydropyrido[3,4-d]pyrimidin-4-yl)piperazin-1-yl)methanone] | + (0 < x ≤ 20) | + (0 < x ≤ 10) | + (0 < x ≤ 20) | – | – | –
15 | COCCN1C[C@@H]1C(=O)N1CCN(c2nc(OC[C@@H]3CCCN3C)nc3c2CCN(c2cccc4cccc(C)c24)C3)C[C@@H]1CC#N (stereo partly drawn) [Example 105, 2-((S)-1-((R)-1-(2-methoxyethyl)aziridine-2-carbonyl)-4-(7-(8-methylnaphthalen-1-yl)-2-(((S)-1-methylpyrrolidin-2-yl)methoxy)-5,6,7,8-tetrahydropyrido[3,4-d]pyrimidin-4-yl)piperazin-2-yl)acetonitrile] | – | – | – | ++ (20 < x ≤ 40) | – | + (0 < x ≤ 20)
16 | COc1ccccc1CN=C=N[C@H]1C[C@H](Nc2nc(OC[C@@H]3CCCN3C)nc3c2CCN(c2cccc4cccc(C)c24)C3)C1 [Example 104, N-((1R,3S)-3-((((2-methoxybenzyl)imino)methylene)amino)cyclobutyl)-7-(8-methylnaphthalen-1-yl)-2-(((S)-1-methylpyrrolidin-2-yl)methoxy)-5,6,7,8-tetrahydropyrido[3,4-d]pyrimidin-4-amine] | – | – | – | + (0 < x ≤ 20) | – | + (0 < x ≤ 20)
17 | Cc1cccc2cccc(N3CCc4c(nc(OC[C@@H]5CCCN5C)nc4N4CCN(C(=O)[C@@H]5CN5C)[C@@H](CC#N)C4)C3)c12 (stereo partly drawn) [Example 107, 2-((S)-1-((S)-1-methylaziridine-2-carbonyl)-4-(7-(8-methylnaphthalen-1-yl)-2-(((S)-1-methylpyrrolidin-2-yl)methoxy)-5,6,7,8-tetrahydropyrido[3,4-d]pyrimidin-4-yl)piperazin-2-yl)acetonitrile] | – | – | – | + (0 < x ≤ 20) | – | 0
18 | CN1CCC[C@H]1COc1nc2c(c(N3CCN(C(=O)[C@@H]4CN4)[C@@H](CC#N)C3)n1)CCN(c1cccc3cccc(Cl)c13)C2 [Example 113, 2-((S)-1-((S)-aziridine-2-carbonyl)-4-(7-(8-chloronaphthalen-1-yl)-2-(((S)-1-methylpyrrolidin-2-yl)methoxy)-5,6,7,8-tetrahydropyrido[3,4-d]pyrimidin-4-yl)piperazin-2-yl)acetonitrile] | – | – | – | + (0 < x ≤ 20) | – | + (0 < x ≤ 20)
